From patent US10100058B2, “Fused heterocyclic compounds as CaM kinase inhibitors” (Gilead Sciences, Inc., priority 2016, dated 2018)

target: recombinant CaMKIIδ (Homo sapiens (Human), UniProt Q13557); assay: CaMKIIδ biochemical assay (HTRF); settings: 10 pM CaMKIIδ, 110 nM calmodulin, 12 μM ATP, 1 hour; read-out: CAMKIID-HTRF-384V2 (IC50 - nM)
Description: CaMKIIδ Biochemical Assay
The biochemical activity of recombinant CaMKIIδ was measured by monitoring the phosphorylation of a target peptide using Homogenous Time Resolved Fluorescence (HTRF) technology from CisBio Bioassays.

First: CCN[C@@H](C)CNC(=O)c1cc(C)nc(-c2cnn3ccc(-c4ccccc4)nc23)c1 [Example 120, (S)—N-(2-(ethylamino)propyl)-2-methyl-6-(5-phenylpyrazolo[1,5-a]pyrimidin-3-yl)isonicotinamide]
Second: CCN[C@@H](C)CNC(=O)c1cc(N)nc(-c2cnn3ccc(-c4ccccc4)nc23)c1 [Example 121, (S)-2-amino-N-(2-(ethylamino)propyl)-6-(5-phenylpyrazolo[1,5-a]pyrimidin-3-yl)isonicotinamide]
The IC50 of the first is 2.7-fold higher: 41.8 nM for the first, 15.7 nM for the second. The second is the more potent here.

Compared with CCN[C@@H](C)CNC(=O)c1cc(-c2cnn3ccc(-c4ccccc4)nc23)nc(C(C)C)c1 [Example 122, (S)—N-(2-(ethylamino)propyl)-2-isopropyl-6-(5-phenylpyrazolo[1,5-a]pyrimidin-3-yl)isonicotinamide], CCN[C@@H](C)CNC(=O)c1cc(Cl)nc(-c2cnn3ccc(-c4ccccc4)nc23)c1 [Example 124, (S)-2-chloro-N-(2-(ethylamino)propyl)-6-(5-phenylpyrazolo[1,5-a]pyrimidin-3-yl)isonicotinamide] is 3.7-fold higher in IC50: 4.61 nM for the first, 17.1 nM for the second.

Going from CCN[C@@H](C)CNC(=O)c1cc(-c2cnn3ccc(-c4ccccc4)nc23)nc(C2CC2)c1 [Example 123, (S)-2-cyclopropyl-N-(2-(ethylamino)propyl)-6-(5-phenylpyrazolo[1,5-a]pyrimidin-3-yl)isonicotinamide] to Cc1cc(C(=O)N2CCC[C@@H]2CN)cc(-c2cnn3ccc(-c4ccccc4)nc23)n1 [Example 131, (R)-(2-(aminomethyl)pyrrolidin-1-yl)(2-methyl-6-(5-phenylpyrazolo[1,5-a]pyrimidin-3-yl)pyridin-4-yl)methanone], the IC50 falls from 94.7 nM to 56.1 nM (1.7-fold).

First: CN(C)c1cc(C(=O)N2CC[C@H](N)C2)cc(-c2cnn3ccc(-c4ccccc4)nc23)n1 [Example 125, (S)-(3-aminopyrrolidin-1-yl)(2-(dimethylamino)-6-(5-phenylpyrazolo[1,5-a]pyrimidin-3-yl)pyridin-4-yl)methanone]
Second: COc1cc(C(=O)N2CC[C@H](N)C2)cc(-c2cnn3ccc(-c4ccccc4)nc23)n1 [Example 126, (S)-(3-aminopyrrolidin-1-yl)(2-methoxy-6-(5-phenylpyrazolo[1,5-a]pyrimidin-3-yl)pyridin-4-yl)methanone]
The IC50 of the first is 4.1-fold higher: 267 nM for the first, 65.6 nM for the second. The second is the more potent here.

Compared with NC[C@H]1CCCCN1C(=O)c1cc(Cl)nc(-c2cnn3ccc(-c4ccccc4)nc23)c1 [Example 127, (R)-(2-(aminomethyl)piperidin-1-yl)(2-chloro-6-(5-phenylpyrazolo[1,5-a]pyrimidin-3-yl)pyridin-4-yl)methanone], NC[C@@H]1CCCCN1C(=O)c1cc(Cl)nc(-c2cnn3ccc(-c4ccccc4)nc23)c1 [Example 133, (S)-(2-(aminomethyl)piperidin-1-yl)(2-chloro-6-(5-phenylpyrazolo[1,5-a]pyrimidin-3-yl)pyridin-4-yl)methanone] is 740-fold higher in IC50: 0.22 nM for the first, 163 nM for the second.

First: Nc1cc(C(=O)N2C3CCNCC2CC3)cc(-c2cnn3ccc(-c4ccccc4)nc23)n1 (stereo not shown) [Example 128, (2-amino-6-(5-phenylpyrazolo[1,5-a]pyrimidin-3-yl)pyridin-4-yl)(-3,9-diazabicyclo[4.2.1]nonan-9-yl)methanone]
Second: Nc1cc(C(=O)N2C3CCNCC2CC3)cc(-c2cnn3ccc(-c4cccs4)nc23)n1 (stereo not shown) [Example 129, (2-amino-6-(5-(thiophen-2-yl)pyrazolo[1,5-a]pyrimidin-3-yl)pyridin-4-yl)(-3,9-diazabicyclo[4.2.1]nonan-9-yl)methanone]
The IC50 of the first is 18-fold higher: 27.8 nM for the first, 1.55 nM for the second.

Compared with CC(C)(C)c1cc(C(=O)N2CCCC[C@@H]2CN)cc(-c2cnn3ccc(-c4ccccc4)nc23)n1 [Example 130, (R)-(2-(aminomethyl)piperidin-1-yl)(2-(tert-butyl)-6-(5-phenylpyrazolo[1,5-a]pyrimidin-3-yl)pyridin-4-yl)methanone], CN(C)c1cc(C(=O)N2CCCC[C@H]2CN)cc(-c2cnn3ccc(-c4ccccc4)nc23)n1 [Example 135, (S)-(2-(aminomethyl)piperidin-1-yl)(2-(dimethylamino)-6-(5-phenylpyrazolo[1,5-a]pyrimidin-3-yl)pyridin-4-yl)methanone] is 2.9-fold higher in IC50: 266 nM for the first, 761 nM for the second. The first is the more potent here.

Going from COc1cc(C(=O)N2CCCC[C@@H]2CN)cc(-c2cnn3ccc(-c4ccccc4)nc23)n1 [Example 132, (R)-(2-(aminomethyl)piperidin-1-yl)(2-methoxy-6-(5-phenylpyrazolo[1,5-a]pyrimidin-3-yl)pyridin-4-yl)methanone] to COc1cc(C(=O)N2CCCC[C@H]2CN)cc(-c2cnn3ccc(-c4ccccc4)nc23)n1 [Example 134, (S)-(2-(aminomethyl)piperidin-1-yl)(2-methoxy-6-(5-phenylpyrazolo[1,5-a]pyrimidin-3-yl)pyridin-4-yl)methanone], the IC50 rises from 32.7 nM to 303 nM (9.3-fold).

First: Cc1cnc(-c2cnn3ccc(-c4ccccc4)nc23)cc1C(=O)N1CCCC[C@@H]1CN [Example 136, (R)-(2-(aminomethyl)piperidin-1-yl)(5-methyl-2-(5-phenylpyrazolo[1,5-a]pyrimidin-3-yl)pyridin-4-yl)methanone]
Second: NC[C@H]1CCCCN1C(=O)c1cc(-c2cnn3ccc(-c4ccccc4)nc23)ncc1Cl [Example 137, (R)-(2-(aminomethyl)piperidin-1-yl)(5-chloro-2-(5-phenylpyrazolo[1,5-a]pyrimidin-3-yl)pyridin-4-yl)methanone]
The IC50 of the first is 2.2-fold lower: 0.84 nM for the first, 1.82 nM for the second. The first is the more potent here.

First: NC[C@H]1CCCCN1C(=O)c1cc(-c2cnn3ccc(-c4ccccc4)nc23)ncc1N [Example 138, (R)-(5-amino-2-(5-phenylpyrazolo[1,5-a]pyrimidin-3-yl)pyridin-4-yl)(2-(aminomethyl)piperidin-1-yl)methanone]
Second: CNc1cnc(-c2cnn3ccc(-c4ccccc4)nc23)cc1C(=O)N1CCCC[C@@H]1CN [Example 139, (R)-(2-(aminomethyl)piperidin-1-yl)(5-(methylamino)-2-(5-phenylpyrazolo[1,5-a]pyrimidin-3-yl)pyridin-4-yl)methanone]
The IC50 of the first is 2.2-fold lower: 0.4 nM for the first, 0.87 nM for the second. The first is the more potent here.

First: Cc1cnc(-c2cnn3ccc(-c4ccccc4)nc23)cc1C(=O)N1CCCC[C@@H]1[C@@H](C)N [Example 140, ((R)-2-((R)-1-aminoethyl)piperidin-1-yl)(5-methyl-2-(5-phenylpyrazolo[1,5-a]pyrimidin-3-yl)pyridin-4-yl)methanone]
Second: CCN(CC)[C@@H](C)CNC(=O)c1cc(-c2cnn3ccc(-c4cccs4)nc23)nc(N2CCC2)c1 [Example 146, (S)-2-(azetidin-1-yl)-N-(2-(diethylamino)propyl)-6-(5-(thiophen-2-yl)pyrazolo[1,5-a]pyrimidin-3-yl)isonicotinamide]
The IC50 of the first is 10-fold higher: 1.91 nM for the first, 0.19 nM for the second. The second is the more potent here.

Compared with CCN(CC)[C@@H](C)CNC(=O)c1cc(-c2cnn3ccc(-c4cccs4)nc23)nc(N2CC(C#N)C2)c1 [Example 142, (S)-2-(3-cyanoazetidin-1-yl)-N-(2-(diethylamino)propyl)-6-(5-(thiophen-2-yl)pyrazolo[1,5-a]pyrimidin-3-yl)isonicotinamide], CCOC1CN(c2cc(C(=O)NC[C@H](C)N(CC)CC)cc(-c3cnn4ccc(-c5cccs5)nc34)n2)C1 [Example 143, (S)—N-(2-(diethylamino)propyl)-2-(3-ethoxyazetidin-1-yl)-6-(5-(thiophen-2-yl)pyrazolo[1,5-a]pyrimidin-3-yl)isonicotinamide] is 1.7-fold higher in IC50: 0.1 nM for the first, 0.17 nM for the second. The first is the more potent here.

Compared with CCN(CC)[C@@H](C)CNC(=O)c1cc(-c2cnn3ccc(-c4cccs4)nc23)nc(N2CC(OC(F)F)C2)c1 [Example 144, (S)—N-(2-(diethylamino)propyl)-2-(3-(difluoromethoxy)azetidin-1-yl)-6-(5-(thiophen-2-yl)pyrazolo[1,5-a]pyrimidin-3-yl)isonicotinamide], CCN(CC)[C@@H](C)CNC(=O)c1cc(-c2cnn3ccc(-c4cccs4)nc23)nc(N2CC(C(F)(F)F)C2)c1 [Example 147, (S)—N-(2-(diethylamino)propyl)-2-(5-(thiophen-2-yl)pyrazolo[1,5-a]pyrimidin-3-yl)-6-(3-(trifluoromethyl)azetidin-1-yl)isonicotinamide] is 1.9-fold higher in IC50: 0.18 nM for the first, 0.34 nM for the second.

Going from CCN(CC)[C@@H](C)CNC(=O)c1cc(-c2cnn3ccc(-c4cccs4)nc23)nc(N2CC(F)(F)C2)c1 [Example 148, (S)—N-(2-(diethylamino)propyl)-2-(3,3-difluoroazetidin-1-yl)-6-(5-(thiophen-2-yl)pyrazolo[1,5-a]pyrimidin-3-yl)isonicotinamide] to CCN(CC)[C@@H](C)CNC(=O)c1cc(-c2cnn3ccc(-c4cccs4)nc23)nc(N2CC(C)(C)C2)c1 [Example 152, (S)—N-(2-(diethylamino)propyl)-2-(3,3-dimethylazetidin-1-yl)-6-(5-(thiophen-2-yl)pyrazolo[1,5-a]pyrimidin-3-yl)isonicotinamide], the IC50 rises from 0.21 nM to 0.59 nM (2.8-fold). The first is the more potent here.

CCN(CC)[C@@H](C)CNC(=O)c1cc(-c2cnn3ccc(-c4cccs4)nc23)nc(N2CC(S(C)(=O)=O)C2)c1 [Example 149, (S)—N-(2-(diethylamino)propyl)-2-(3-(methylsulfonyl)azetidin-1-yl)-6-(5-(thiophen-2-yl)pyrazolo[1,5-a]pyrimidin-3-yl)isonicotinamide] and CCN(CC)[C@@H](C)CNC(=O)c1cc(-c2cnn3ccc(-c4cccs4)nc23)nc(N2CC(S(=O)(=O)NC)C2)c1 [Example 150, (S)—N-(2-(diethylamino)propyl)-2-(3-(N-methylsulfamoyl)azetidin-1-yl)-6-(5-(thiophen-2-yl)pyrazolo[1,5-a]pyrimidin-3-yl)isonicotinamide] are within 1.5-fold of each other in IC50: 0.14 nM for the first, 0.2 nM for the second.

CCN(CC)[C@@H](C)CNC(=O)c1cc(-c2cnn3ccc(-c4cccs4)nc23)nc(N2CC(S(=O)(=O)NC3CC3)C2)c1 [Example 151, (S)-2-(3-(N-cyclopropylsulfamoyl)azetidin-1-yl)-N-(2-(diethylamino)propyl)-6-(5-(thiophen-2-yl)pyrazolo[1,5-a]pyrimidin-3-yl)isonicotinamide] gave an IC50 of 0.32 nM.
